Test results as given in the NIST ThermoML archive (doi:10.1007/s10765-011-1149-x).

Test: xn = mol fraction of the nth substance listed
Conditions: 101 kPa, Liquid, Vibrating tube method

Cc1cc(C)nc(C)c1 [2,4,6-trimethylpyridine] + OCCO
Conditions	mass density [kg/m3]
276.15 K, x1 = 0.0227	1116.64
276.15 K, x1 = 0.0509	1106.81
276.15 K, x1 = 0.1024	1090.72
276.15 K, x1 = 0.1996	1065.35
276.15 K, x1 = 0.2983	1043.61
276.15 K, x1 = 0.4014	1024.29
276.15 K, x1 = 0.4958	1008.47
276.15 K, x1 = 0.5984	991.05
276.15 K, x1 = 0.6974	975.68
276.15 K, x1 = 0.7927	959.81
276.15 K, x1 = 0.8896	944.84
277.15 K, x1 = 0.0227	1115.94
277.15 K, x1 = 0.0509	1106.1
277.15 K, x1 = 0.1996	1064.61
277.15 K, x1 = 0.2983	1042.81
277.15 K, x1 = 0.4014	1023.47
277.15 K, x1 = 0.4958	1007.63
277.15 K, x1 = 0.5984	990.18
277.15 K, x1 = 0.6974	974.81
277.15 K, x1 = 0.7927	958.95
277.15 K, x1 = 0.8896	944
277.16 K, x1 = 0.1024	1090
283.15 K, x1 = 0.0227	1111.72
283.15 K, x1 = 0.0509	1101.82
283.15 K, x1 = 0.1996	1060.1
283.15 K, x1 = 0.2983	1038.02
283.15 K, x1 = 0.4014	1018.5
283.15 K, x1 = 0.5984	985
283.15 K, x1 = 0.7927	953.81
283.15 K, x1 = 0.8896	938.89
283.16 K, x1 = 0.1024	1085.61
283.16 K, x1 = 0.4958	1002.53
283.16 K, x1 = 0.6974	969.63
288.15 K, x1 = 0.0227	1108.21
288.15 K, x1 = 0.0509	1098.26
288.15 K, x1 = 0.1024	1081.94
288.15 K, x1 = 0.1996	1056.23
288.15 K, x1 = 0.2983	1034.02
288.15 K, x1 = 0.4014	1014.34
288.15 K, x1 = 0.4958	998.27
288.15 K, x1 = 0.5984	980.68
288.15 K, x1 = 0.6974	965.31
288.15 K, x1 = 0.7927	949.52
288.15 K, x1 = 0.8896	934.64
293.14 K, x1 = 0.1024	1078.26
293.15 K, x1 = 0.0227	1104.68
293.15 K, x1 = 0.0509	1094.67
293.15 K, x1 = 0.1996	1052.33
293.15 K, x1 = 0.2983	1029.98
293.15 K, x1 = 0.4014	1010.15
293.15 K, x1 = 0.4958	993.97
293.15 K, x1 = 0.5984	976.33
293.15 K, x1 = 0.6974	960.96
293.15 K, x1 = 0.7927	945.2
293.15 K, x1 = 0.8896	930.36
298.14 K, x1 = 0.0227	1101.13
298.14 K, x1 = 0.0509	1091.07
298.14 K, x1 = 0.1024	1074.55
298.14 K, x1 = 0.2983	1025.93
298.14 K, x1 = 0.4958	989.66
298.14 K, x1 = 0.8896	926.07
298.15 K, x1 = 0.1996	1048.43
298.15 K, x1 = 0.4014	1005.94
298.15 K, x1 = 0.5984	971.96
298.15 K, x1 = 0.6974	956.59
298.15 K, x1 = 0.7927	940.86
303.15 K, x1 = 0.0227	1097.58
303.15 K, x1 = 0.0509	1087.45
303.15 K, x1 = 0.1024	1070.84
303.15 K, x1 = 0.1996	1044.52
303.15 K, x1 = 0.2983	1021.84
303.15 K, x1 = 0.4014	1001.71
303.15 K, x1 = 0.4958	985.33
303.15 K, x1 = 0.5984	967.57
303.15 K, x1 = 0.6974	952.2
303.15 K, x1 = 0.7927	936.51
303.15 K, x1 = 0.8896	921.76
308.14 K, x1 = 0.4014	997.46
308.14 K, x1 = 0.5984	963.16
308.15 K, x1 = 0.0227	1094.01
308.15 K, x1 = 0.0509	1083.83
308.15 K, x1 = 0.1024	1067.1
308.15 K, x1 = 0.1996	1040.64
308.15 K, x1 = 0.2983	1017.74
308.15 K, x1 = 0.4958	980.98
308.15 K, x1 = 0.6974	947.78
308.15 K, x1 = 0.7927	932.13
308.15 K, x1 = 0.8896	917.43
313.14 K, x1 = 0.1024	1063.34
313.14 K, x1 = 0.1996	1036.74
313.14 K, x1 = 0.2983	1013.62
313.14 K, x1 = 0.4014	993.19
313.14 K, x1 = 0.4958	976.61
313.14 K, x1 = 0.5984	958.73
313.15 K, x1 = 0.0227	1090.43
313.15 K, x1 = 0.0509	1080.18
313.15 K, x1 = 0.6974	943.35
313.15 K, x1 = 0.7927	927.74
313.15 K, x1 = 0.8896	913.09
